From patent publication US6737383B1, “Herbicidal oxadiazolidines” (priority 1999, dated 2004)

Legend:
[1] = tested on: morningglory; assay: Test B pre/postemergence morningglory; assay type: in vivo, Ipomoea hederacea; conditions: for Morningglory plant response rating: Postemergence; for Plant response rating, Morningglory: Preemergence
In short: (§1)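 Herbicidal effect was estimated by eye on a ten-point control scale after plants spent twelve to sixteen days in a greenhouse following soil or foliar treatment. Foliar sprays targeted plants at one to four leaves; all doses were formulated in a non-phytotoxic solvent with surfactant.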

[2] = tested on: bamyardgrass; assay: Test B flood test barnyardgrass; assay type: in vivo, Echinochloa crus-galli
In short: (§2)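 Read-out is a visual response score from 0 (no effect) to 10 (complete control), assigned by comparison with untreated controls. Treatment was applied at the 2-leaf stage, and plants stayed in the greenhouse for twelve to sixteen days before scoring.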

[3] = tested on: soybean; assay: Test B pre/postemergence soybean; assay type: in vivo, Glycine max; conditions: for Soybean plant response rating: Postemergence; for Plant response rating, Soybean: Preemergence
In short: as §1

[4] = tested on: duck salad; assay: Test B flood test duck salad; assay type: in vivo, Heteranthera limosa
In short: as §2

[5] = tested on: corn; assay: Test B pre/postemergence corn; assay type: in vivo, Zea mays; conditions: for Corn plant response rating: Postemergence; for Plant response rating, Corn: Preemergence
In short: as §1

[6] = tested on: smallflower flatsedge; assay: Test B flood test smallflower flatsedge; assay type: in vivo, Cyperus difformis
In short: as §2

[7] = tested on: sugar beet; assay: Test B pre/postemergence sugar beet; assay type: in vivo, Beta vulgaris; conditions: for Sugarbeets plant response rating: Postemergence; for Plant response rating, Sugarbeets: Preemergence
In short: as §1

[8] = tested on: velvetleaf; assay: Test B pre/postemergence velvetleaf; assay type: in vivo, Abutilon theophrasti; conditions: for Velvetleaf plant response rating: Postemergence; for Plant response rating, Velvetleaf: Preemergence
In short: as §1

[9] = tested on: crabgrass; assay: Test B pre/postemergence crabgrass; assay type: in vivo, Digitaria sanguinalis; conditions: for Crabgrass plant response rating: Postemergence; for Plant response rating, Crabgrass: Preemergence
In short: as §1

[10] = tested on: purple nutsedge; assay: Test B pre/postemergence purple nutsedge; assay type: in vivo, Cyperus rotundus; conditions: for Nutsedge plant response rating: Postemergence; for Plant response rating, Nutsedge: Preemergence
In short: as §1

[11] = tested on: blackgrass; assay: Test B pre/postemergence blackgrass; assay type: in vivo, Alopecurus myosuroides; conditions: for Blackgrass plant response rating: Postemergence
In short: as §1

[12] = Rate 125 g/ha, scale of 0 to 10 where 0 is no effect and 10 is complete control
[13] = Rate 500 g/ha, scale of 0 to 10 where 0 is no effect and 10 is complete control
[14] = Rate 250 g/ha, scale 0 to 10, 0 is no effect, 10 is complete control
[15] = Rate 500 g/ha, scale 0 to 10, 0 is no effect, 10 is complete control
[16] = Rate 1000 g/ha, scale 0 to 10 (0 no effect, 10 complete control)
[17] = Pre-emergence, Rate 1000 g/ha, scale 0 to 10 (0 no effect, 10 complete control)
[18] = Rate 125 g/ha, under heading Pre-emergence, flood test species, visual evaluation after twelve to sixteen days
[19] = Rate 250 g/ha, Pre-emergence (flood test species), scale 0 to 10, 0 is no effect, 10 is complete control
[20] = Rate 500 g/ha, Pre-emergence section of Table B, 0 to 10 scale (0 no effect, 10 complete control)
[21] = Rate 250 g/ha, scale 0 to 10 (0 no effect, 10 complete control)

CCOC(=O)CC(C(=O)OCC)n1c(=O)on(C(=O)N(c2ccc(Cl)cc2)C(C)C)c1=O (stereo not drawn) [Compound 681]
Morningglory plant response rating [1, 12]: 0
Plant response rating, Morningglory [1, 12]: 0
Plant response rating, Morningglory [1, 13]: 0
Morningglory plant response rating [1, 14]: 0
Morningglory plant response rating [1, 15]: 7
Plant response rating, Morningglory [1, 16]: 0
Barnyardgrass plant response rating [2, 17]: 0
Barnyardgrass plant response rating (0 to 10 scale, 0 is no effect, 10 is complete control) [2, 18]: 0
Barnyardgrass plant response rating [2, 19]: 0
Barnyardgrass plant response rating [2, 20]: 0
Soybean plant response rating [3, 12]: 0
Plant response rating, Soybean [3, 12]: 0
Plant response rating, Soybean [3, 13]: 0
Soybean plant response rating [3, 14]: 0
Soybean plant response rating [3, 15]: 1
Plant response rating, Soybean [3, 16]: 0
Ducksalad plant response rating [4, 17]: 0
Ducksalad plant response rating (0 to 10 scale, 0 is no effect, 10 is complete control) [4, 18]: 0
Ducksalad plant response rating [4, 19]: 0
Ducksalad plant response rating [4, 20]: 0
Corn plant response rating [5, 12]: 0
Corn plant response rating [5, 16]: 0
Plant response rating, Corn [5, 12]: 0
Plant response rating, Corn [5, 21]: 0
Plant response rating, Corn [5, 13]: 0
Corn plant response rating [5, 14]: 0
Corn plant response rating [5, 15]: 0
Plant response rating, Corn [5, 16]: 0
S. Flatsedge plant response rating [6, 17]: 0
S. Flatsedge plant response rating (0 to 10 scale, 0 is no effect, 10 is complete control) [6, 18]: 0
S. Flatsedge plant response rating [6, 19]: 0
S. Flatsedge plant response rating [6, 20]: 0
Sugarbeets plant response rating [7, 12]: 0
Plant response rating, Sugarbeets [7, 12]: 0
Plant response rating, Sugarbeets [7, 13]: 0
Sugarbeets plant response rating [7, 14]: 0
Sugarbeets plant response rating [7, 15]: 0
Plant response rating, Sugarbeets [7, 16]: 0
Velvetleaf plant response rating [8, 12]: 0
Plant response rating, Velvetleaf [8, 12]: 0
Plant response rating, Velvetleaf [8, 13]: 0
Velvetleaf plant response rating [8, 14]: 0
Velvetleaf plant response rating [8, 15]: 0
Plant response rating, Velvetleaf [8, 16]: 0
Crabgrass plant response rating [9, 12]: 0
Crabgrass plant response rating [9, 16]: 2
Plant response rating, Crabgrass [9, 12]: 0
Plant response rating, Crabgrass [9, 21]: 2
Plant response rating, Crabgrass [9, 13]: 7
Crabgrass plant response rating [9, 14]: 0
Crabgrass plant response rating [9, 15]: 0
Plant response rating, Crabgrass [9, 16]: 8
Nutsedge plant response rating [10, 12]: 0
Plant response rating, Nutsedge [10, 12]: 0
Plant response rating, Nutsedge [10, 13]: 0
Nutsedge plant response rating [10, 14]: 0
Plant response rating, Nutsedge [10, 16]: 0
Blackgrass plant response rating [11, 12]: 0
Blackgrass plant response rating [11, 16]: 4
Plant response rating, Blackgrass ([11]; Preemergence, Rate 125 g/ha, scale of 0 to 10 where 0 is no effect and 10 is complete control): 0
